Test results from the NIST ThermoML archive (doi:10.1021/je300799f).

Test: xn = mol fraction of the nth substance listed
Conditions: 101 kPa, Liquid, Vibrating tube method

CCCC(=O)OC [methyl butanoate] + CCCCCCCCC
Conditions	mass density [kg/m3]
288.15 K, x1 = 0.0544	727.14
288.15 K, x1 = 0.0804	729.99
288.15 K, x1 = 0.1647	739.66
288.15 K, x1 = 0.2172	746.06
288.15 K, x1 = 0.2378	748.63
288.15 K, x1 = 0.2963	756.43
288.15 K, x1 = 0.3419	762.85
288.15 K, x1 = 0.3986	771.19
288.15 K, x1 = 0.4425	778.04
288.15 K, x1 = 0.5007	787.63
288.15 K, x1 = 0.5488	796.09
288.15 K, x1 = 0.604	806.21
288.15 K, x1 = 0.6553	816.39
288.15 K, x1 = 0.6959	824.67
288.15 K, x1 = 0.7507	836.81
288.15 K, x1 = 0.8114	850.96
288.15 K, x1 = 0.8553	862.13
288.15 K, x1 = 0.8988	873.46
288.15 K, x1 = 0.9507	888.13
288.15 K, x1 = 1	903.31
298.15 K, x1 = 0.0495	718.76
298.15 K, x1 = 0.0998	724.04
298.15 K, x1 = 0.1729	732.49
298.15 K, x1 = 0.1935	734.88
298.15 K, x1 = 0.2473	741.54
298.15 K, x1 = 0.3035	748.92
298.15 K, x1 = 0.3558	756.23
298.15 K, x1 = 0.4462	769.69
298.15 K, x1 = 0.5497	786.99
298.15 K, x1 = 0.6465	805.02
298.15 K, x1 = 0.7509	826.86
298.15 K, x1 = 0.7772	832.78
298.15 K, x1 = 0.8038	839.14
298.15 K, x1 = 0.9052	864.6
298.15 K, x1 = 0.953	878.19
298.15 K, x1 = 1	892.31
308.15 K, x1 = 0.0554	711.45
308.15 K, x1 = 0.1002	716.1
308.15 K, x1 = 0.1653	723.29
308.15 K, x1 = 0.2108	728.63
308.15 K, x1 = 0.2545	734.04
308.15 K, x1 = 0.3082	740.93
308.15 K, x1 = 0.3598	748.08
308.15 K, x1 = 0.409	755.11
308.15 K, x1 = 0.4594	762.76
308.15 K, x1 = 0.4993	769.14
308.15 K, x1 = 0.5504	777.76
308.15 K, x1 = 0.6001	786.6
308.15 K, x1 = 0.6482	795.68
308.15 K, x1 = 0.6945	804.91
308.15 K, x1 = 0.7463	815.78
308.15 K, x1 = 0.7964	827.07
308.15 K, x1 = 0.8451	838.68
308.15 K, x1 = 0.8948	851.33
308.15 K, x1 = 0.9497	866.34
308.15 K, x1 = 1	881.19
318.15 K, x1 = 0.0234	700.32
318.15 K, x1 = 0.0731	705.17
318.15 K, x1 = 0.1033	708.28
318.15 K, x1 = 0.1552	713.83
318.15 K, x1 = 0.1993	718.91
318.15 K, x1 = 0.2571	725.77
318.15 K, x1 = 0.3123	732.79
318.15 K, x1 = 0.3568	738.79
318.15 K, x1 = 0.4135	746.74
318.15 K, x1 = 0.4555	753.07
318.15 K, x1 = 0.5093	761.51
318.15 K, x1 = 0.5565	769.3
318.15 K, x1 = 0.6043	777.7
318.15 K, x1 = 0.6544	787.04
318.15 K, x1 = 0.7067	797.4
318.15 K, x1 = 0.7541	807.31
318.15 K, x1 = 0.8037	818.4
318.15 K, x1 = 0.8594	831.69
318.15 K, x1 = 0.9068	843.76
318.15 K, x1 = 0.9511	855.91
318.15 K, x1 = 1	870.06
328.15 K, x1 = 0.0272	692.57
328.15 K, x1 = 0.0562	695.34
328.15 K, x1 = 0.078	697.49
328.15 K, x1 = 0.1041	700.12
328.15 K, x1 = 0.1502	704.97
328.15 K, x1 = 0.2023	710.73
328.15 K, x1 = 0.2654	718.16
328.15 K, x1 = 0.3073	723.36
328.15 K, x1 = 0.3624	730.61
328.15 K, x1 = 0.412	737.45
328.15 K, x1 = 0.4567	744
328.15 K, x1 = 0.5083	751.95
328.15 K, x1 = 0.5549	759.51
328.15 K, x1 = 0.6157	770.1
328.15 K, x1 = 0.6554	777.42
328.15 K, x1 = 0.7027	786.49
328.15 K, x1 = 0.749	795.99
328.15 K, x1 = 0.8511	819.04
328.15 K, x1 = 0.9051	832.64
328.15 K, x1 = 0.9506	844.76
328.15 K, x1 = 1	858.8
